This passage reports IC50 results from patent EP0922044B1, “PYRROLO(3,2-C) QUINOLINE DERIVATIVES” (PHARMACIA & UPJOHN S.p.A., priority 1996, dated 1998).

For orientation: pIC50 means the negative decadic logarithm of the IC50, by convention in mol/L.

Each structure is given as a SMILES string. pIC50: −log10 of the molar value.

The target of this test is T1, kynurenine-3-hydroxylase (Rattus norvegicus, UniProt O88867).
T1 construct: Rat liver mitochondrial extract was used as enzymatic preparation for this assay; from tissue; host or cells: rat liver mitochondrial extract
T1 sequence (O88867 whole entry): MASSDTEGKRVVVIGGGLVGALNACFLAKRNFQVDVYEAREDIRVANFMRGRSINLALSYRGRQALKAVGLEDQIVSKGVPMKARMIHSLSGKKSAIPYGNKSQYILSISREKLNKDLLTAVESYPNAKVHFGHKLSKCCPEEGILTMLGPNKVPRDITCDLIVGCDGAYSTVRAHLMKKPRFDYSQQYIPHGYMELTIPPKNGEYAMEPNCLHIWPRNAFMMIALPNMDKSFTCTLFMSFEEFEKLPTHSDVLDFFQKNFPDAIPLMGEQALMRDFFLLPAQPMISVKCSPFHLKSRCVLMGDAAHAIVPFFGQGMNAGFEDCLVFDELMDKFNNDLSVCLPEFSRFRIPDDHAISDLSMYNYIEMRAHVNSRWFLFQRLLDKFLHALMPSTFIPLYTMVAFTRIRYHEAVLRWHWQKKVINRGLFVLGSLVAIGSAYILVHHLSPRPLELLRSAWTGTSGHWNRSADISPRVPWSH
Description: Kynurenine-3-hydroxylase assay in rat liver (radiometric, release of tritiated water, mitochondrial extract). The class given is biochemical. The note with it: 37°C, 30 min, 0.025 mM L-kynurenine, read-out: KYN-3-OH inhibition (IC50) Liver. Here is the method: Kynurenine-3-hydroxylase assay in rat liver
The assay for kynurenine 3-hydroxylase was based on enzymatic synthesis of tritiated water during hydroxylation reaction. Radiolabelled water was quantified following selective adsorption of the isotopic substrate and its metabolites with active charcoal.
Rat liver mitochondrial extract was used as enzymatic preparation for this assay.
The assay for kynurenine 3-hydroxylase activity was carried out at 37°C for a time of 30 min. The reaction mixture of a total volume of […] was constituted of 44 mg of suspended extract, 100 mM Tris/Cl buffer pH 8.1, 10 mM EDTA, 100mM KCl, 0.8 mM NADPH, 0.025 mM L-kynurenine, 0.5 mCi L-(3,5-^3H)Kynurenine (10 Ci/mmol) and […] of different concentration of inhibitor solutions. After the incubation the reaction was terminated by the addition of 1 mL of 7.5% (w/v) activated charcoal, vortexed and centrifugated for 7 min.
A […] of supernatant was counted by scintillation spectroscopy in 5 ml of liquid scintillation.

For the compound `Cc1c[nH]c2c1c(C(=O)O)nc1ccc(Cl)cc12` [FCE 29370, 8-chloro-3-methyl-1H-pyrrolo[3,2-c] quinoline-4-carboxylic acid], the pIC50 is 4.21.

Turning to `O=C(O)c1nc2cc(Cl)ccc2c2[nH]cc(-c3ccccc3)c12` [FCE 29464, 7-chloro-3-phenyl-1H-pyrrolo[3,2-c] quinoline-4-carboxylic acid], the pIC50 was 4.47.
